Among the data in US20190231751A1, “TREATMENT OF FIBROTIC DISORDERS WITH JUN N-TERMINAL KINASE INHIBITORS” (Imago Pharmaceuticals, Inc., priority 2016, published 2019) are IC50 values, retold here.

Holding throughout (format): biochemical
One assay addresses JNK2 (Homo sapiens, UniProt P45984). The experiment in a line: In vitro JNK2 inhibition (Table 1). As to the method:
(§1) In vitro assays for the determination of JNK activities are known in the art and exemplary assay formats are described herein.
(§2) IC50 values in Table 1 were determined using the procedures as described in U.S. Pat. No. 8,450,353.

The target of a further assay is JNK3 (Homo sapiens, UniProt P53779). The experiment in a line: In vitro JNK3 inhibition (Table 1). As to the method: as §1, §2
JNK3, sequence (P53779 whole entry, species assumed): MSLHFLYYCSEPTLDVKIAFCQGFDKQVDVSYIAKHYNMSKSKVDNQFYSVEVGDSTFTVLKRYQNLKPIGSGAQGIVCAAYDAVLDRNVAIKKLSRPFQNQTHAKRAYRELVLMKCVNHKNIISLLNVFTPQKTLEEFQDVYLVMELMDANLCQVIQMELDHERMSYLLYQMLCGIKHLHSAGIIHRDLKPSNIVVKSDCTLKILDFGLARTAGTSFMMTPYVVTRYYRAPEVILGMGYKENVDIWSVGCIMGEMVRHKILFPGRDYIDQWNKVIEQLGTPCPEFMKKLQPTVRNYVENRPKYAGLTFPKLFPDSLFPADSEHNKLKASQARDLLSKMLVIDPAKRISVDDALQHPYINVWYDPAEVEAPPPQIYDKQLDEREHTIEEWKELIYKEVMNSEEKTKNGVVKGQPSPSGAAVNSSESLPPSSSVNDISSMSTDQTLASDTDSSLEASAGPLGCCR
For a further assay, the target named is JNK1 (Homo sapiens, UniProt P45983). The experiment in a line: In vitro JNK1 inhibition (Table 1). The method, then:
as §1, §2

JNK2, sequence (P45984 whole entry, species assumed): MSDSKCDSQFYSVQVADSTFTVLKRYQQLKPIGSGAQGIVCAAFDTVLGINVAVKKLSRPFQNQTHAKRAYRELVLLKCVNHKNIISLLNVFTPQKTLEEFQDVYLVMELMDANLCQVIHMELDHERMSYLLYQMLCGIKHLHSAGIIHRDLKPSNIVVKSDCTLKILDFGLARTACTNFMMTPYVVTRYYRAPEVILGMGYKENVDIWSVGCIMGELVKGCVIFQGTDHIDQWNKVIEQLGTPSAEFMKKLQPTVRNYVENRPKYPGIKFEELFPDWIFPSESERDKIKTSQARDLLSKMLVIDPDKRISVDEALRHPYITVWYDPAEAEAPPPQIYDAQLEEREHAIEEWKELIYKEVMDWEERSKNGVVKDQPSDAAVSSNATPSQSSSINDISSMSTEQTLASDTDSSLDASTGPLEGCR
JNK1, sequence (P45983 whole entry, species assumed): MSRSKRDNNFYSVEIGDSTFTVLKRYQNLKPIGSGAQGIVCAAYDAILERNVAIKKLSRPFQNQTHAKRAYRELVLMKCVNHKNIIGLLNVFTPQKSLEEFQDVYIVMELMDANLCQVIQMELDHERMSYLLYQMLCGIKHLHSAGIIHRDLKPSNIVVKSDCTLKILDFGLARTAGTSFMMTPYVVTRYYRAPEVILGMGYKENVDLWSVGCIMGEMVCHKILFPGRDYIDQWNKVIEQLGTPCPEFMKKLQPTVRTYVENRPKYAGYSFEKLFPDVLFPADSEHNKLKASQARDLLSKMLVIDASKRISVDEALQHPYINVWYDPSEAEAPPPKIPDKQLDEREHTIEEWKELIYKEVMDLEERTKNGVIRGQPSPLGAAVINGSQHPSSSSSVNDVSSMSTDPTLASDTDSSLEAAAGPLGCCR

In general, IC50 refers to the concentration that inhibits the measured activity by half. Lower therefore signals greater potency. Turning to `O=C(Cn1c(=O)ccc2cc(C(F)(F)F)ccc21)Nc1scc(Cl)c1-c1ncn(CCCN2CCOCC2)n1` [N-(4-chloro-3-(1-(3-morpholinopropyl)-1H-1,2,4-triazol-3-yl)thiophen-2-yl)-2-(2-oxo-6-(trifluoromethyl)quinolin-1(2H)-yl)acetamide], the IC50 on JNK2, against JNK3 and against JNK1 was under 0.1 µM in each case.
Regarding `Cn1cnc(-c2c(Cl)csc2NC(=O)CN2C(=O)CCc3ncccc32)n1` [N-(4-chloro-3-(1-methyl-1H-1,2,4-triazol-3-yl)thiophen-2-yl)-2-(2-oxo-3,4-dihydro-1,5-naphthyridin-1(2H)-yl)acetamide], the 50% inhibitory concentration (IC50) against JNK2, at JNK3 and at JNK1 was under 0.1 µM throughout.
Take `Cn1cnc(-c2c(Cl)csc2NC(=O)Cn2c(=O)ccc3nc(C(F)(F)F)ccc32)n1` [N-(4-chloro-3-(1-methyl-1H-1,2,4-triazol-3-yl)thiophen-2-yl)-2-(2-oxo-6-(trifluoromethyl)-1,5-naphthyridin-1(2H)-yl)acetamide]: the IC50 against JNK2, against JNK3 and on JNK1 was under 0.1 µM throughout.
On to `Cn1cnc(-c2c(Cl)csc2NC(=O)Cn2c(=O)ccc3cnc(C(F)(F)F)cc32)n1` [N-(4-chloro-3-(1-methyl-1H-1,2,4-triazol-3-yl)thiophen-2-yl)-2-(2-oxo-7-(trifluoromethyl)-1,6-naphthyridin-1(2H)-yl)acetamide], for which the IC50 on JNK2, at JNK3 and against JNK1 was under 0.1 µM in each case.
For `Cn1cnc(-c2c(Cl)csc2NC(=O)Cn2c(=O)ccn3nc(C(F)(F)F)cc23)n1` [N-(4-chloro-3-(1-methyl-1H-1,2,4-triazol-3-yl)thiophen-2-yl)-2-(5-oxo-2-(trifluoromethyl)pyrazolo[1,5-a]pyrimidin-4(5H)-yl)acetamide], the IC50 against JNK2, at JNK3 and at JNK1 was under 0.1 µM in each case.
Take `Cn1cnc(-c2c(Cl)csc2NC(=O)Cn2c(=O)ccn3nccc23)n1` [N-(4-chloro-3-(1-methyl-1H-1,2,4-triazol-3-yl)thiophen-2-yl)-2-(5-oxopyrazolo[1,5-a]pyrimidin-4(5H)-yl)acetamide]: the concentration for half-maximal inhibition (IC50) on JNK2, on JNK3 and on JNK1 was under 0.1 µM throughout.
For `O=C(CN1C(=O)CCc2ncccc21)Nc1scc(Cl)c1-c1nc[nH]n1` [N-(4-chloro-3-(1H-1,2,4-triazol-3-yl)thiophen-2-yl)-2-(2-oxo-3,4-dihydro-1,5-naphthyridin-1(2H)-yl)acetamide], the IC50 against JNK2, on JNK3 and against JNK1 was under 0.1 µM each time.
For `O=C(Cn1c(=O)ccc2cc(C(F)(F)F)ccc21)N(CCCN1CCCC1)c1scc(Cl)c1-c1nc[nH]n1` [N-(4-chloro-3-(1H-1,2,4-triazol-3-yl)thiophen-2-yl)-2-(2-oxo-6-(trifluoromethyl)quinolin-1(2H)-yl)-N-(3-(pyrrolidin-1-yl)propyl)acetamide], the IC50 against JNK2, against JNK3 and against JNK1 was 0.1 to 10 µM in each case.
Regarding `O=C(Cn1c(=O)ccc2cnc(C(F)(F)F)cc21)Nc1scc(Cl)c1-c1nc[nH]n1` [N-(4-chloro-3-(1H-1,2,4-triazol-3-yl)thiophen-2-yl)-2-(2-oxo-7-(trifluoromethyl)-1,6-naphthyridin-1(2H)-yl)acetamide], the half-maximal inhibitory concentration (IC50) against JNK2, on JNK3 and at JNK1 was under 0.1 µM throughout.
In the case of `N#Cc1ccc2c(ccc(=O)n2CC(=O)Nc2scc(Cl)c2-c2nc[nH]n2)c1` [N-(4-chloro-3-(1H-1,2,4-triazol-3-yl)thiophen-2-yl)-2-(6-cyano-2-oxoquinolin-1(2H)-yl)acetamide], the IC50 at JNK2, against JNK3 and against JNK1 was under 0.1 µM each time.
Regarding `CN(C)CCN(C(=O)Cn1c(=O)ccc2cc(C(F)(F)F)ccc21)c1scc(Cl)c1-c1nc[nH]n1` [N-(4-chloro-3-(1H-1,2,4-triazol-3-yl)thiophen-2-yl)-N-(2-(dimethylamino)ethyl)-2-(2-oxo-6-(trifluoromethyl)quinolin-1(2H)-yl)acetamide], the IC50 on JNK2, against JNK3 and against JNK1 was 0.1 to 10 µM each time.
Take `O=C(CN1C(=O)CCc2ccccc21)Nc1scc(Cl)c1-c1ncn[nH]1` [N-(4-chloro-3-(1H-1,2,4-triazol-5-yl)thiophen-2-yl)-2-(2-oxo-3,4-dihydroquinolin-1(2H)-yl)acetamide]: the IC50 against JNK2, against JNK3 and against JNK1 was under 0.1 µM in each case.
For the compound `O=C(Cn1c(=O)ccc2nc(C(F)(F)F)ccc21)Nc1scc(Cl)c1-c1ncn[nH]1` [N-(4-chloro-3-(1H-1,2,4-triazol-5-yl)thiophen-2-yl)-2-(2-oxo-6-(trifluoromethyl)-1,5-naphthyridin-1(2H)-yl)acetamide], the IC50 on JNK2, on JNK3 and against JNK1 was under 0.1 µM in each case.
Turning to `O=C(Cn1c(=O)ccc2cc(C(F)(F)F)ccc21)Nc1scc(Cl)c1-c1ncn[nH]1` [N-(4-chloro-3-(1H-1,2,4-triazol-5-yl)thiophen-2-yl)-2-(2-oxo-6-(trifluoromethyl)quinolin-1(2H)-yl)acetamide], the IC50 on JNK2, against JNK3 and at JNK1 was under 0.1 µM in each case.
For the compound `O=C(Cn1c(=O)ccn2nc(C(F)(F)F)cc12)Nc1scc(Cl)c1-c1ncn[nH]1` [N-(4-chloro-3-(1H-1,2,4-triazol-5-yl)thiophen-2-yl)-2-(5-oxo-2-(trifluoromethyl)pyrazolo[1,5-a]pyrimidin-4(5H)-yl)acetamide], the IC50 against JNK2, against JNK3 and against JNK1 was under 0.1 µM in each case.
On to `O=C(Cn1c(=O)ccn2nccc12)Nc1scc(Cl)c1-c1ncn[nH]1` [N-(4-chloro-3-(1H-1,2,4-triazol-5-yl)thiophen-2-yl)-2-(5-oxopyrazolo[1,5-a]pyrimidin-4(5H)-yl)acetamide], for which the IC50 against JNK2, against JNK3 and against JNK1 was under 0.1 µM throughout.
For the compound `O=C(Cc1cccc2cnccc12)Nc1scc(Cl)c1-c1ncn[nH]1` [N-(4-chloro-3-(1H-1,2,4-triazol-5-yl)thiophen-2-yl)-2-(isoquinolin-5-yl)acetamide], the IC50 against JNK2, at JNK3 and at JNK1 was under 0.1 µM in each case.
In the case of `Cc1n[nH]c(-c2c(Cl)csc2NC(=O)CN2C(=O)CCc3ncccc32)n1` [N-(4-chloro-3-(3-methyl-1H-1,2,4-triazol-5-yl)thiophen-2-yl)-2-(2-oxo-3,4-dihydro-1,5-naphthyridin-1(2H)-yl)acetamide], the IC50 against JNK2, against JNK3 and against JNK1 was under 0.1 µM throughout.
On to `O=C(CN1C(=O)CCc2ncccc21)Nc1scc(Cl)c1-c1nccs1` [N-(4-chloro-3-(thiazol-2-yl)thiophen-2-yl)-2-(2-oxo-3,4-dihydro-1,5-naphthyridin-1(2H)-yl)acetamide], for which the IC50 on JNK2, at JNK3 and at JNK1 was under 0.1 µM throughout.
For the compound `Cn1cnc(-c2c(C#N)csc2NC(=O)CN2C(=O)CCc3ncccc32)n1` [N-(4-cyano-3-(1-methyl-1H-1,2,4-triazol-3-yl)thiophen-2-yl)-2-(2-oxo-3,4-dihydro-1,5-naphthyridin-1(2H)-yl)acetamide], the half-maximal inhibitory concentration (IC50) at JNK2, against JNK3 and against JNK1 was under 0.1 µM each time.
Regarding `Cn1cnc(-c2c(C#N)csc2NC(=O)Cc2cccc3ncccc23)n1` [N-(4-cyano-3-(1-methyl-1H-1,2,4-triazol-3-yl)thiophen-2-yl)-2-(quinolin-5-yl)acetamide], the concentration for half-maximal inhibition (IC50) against JNK2, at JNK3 and against JNK1 was under 0.1 µM in each case.
As to `N#Cc1csc(NC(=O)Cn2c(=O)ccc3cc(C(F)(F)F)ccc32)c1-n1ccnn1` [N-(4-cyano-3-(1H-1,2,3-triazol-1-yl)thiophen-2-yl)-2-(2-oxo-6-triazol-1-yl)-4-cyanothiophen-2-yl)-2-(2-oxo-6-(trifluoromethyl)quinolin-1(2H)-yl)acetamide], the IC50 against JNK2, against JNK3 and on JNK1 was 0.1 to 10 µM each time.
As for `N#Cc1csc(NC(=O)CN2C(=O)CCc3ncccc32)c1-c1nc[nH]n1` [N-(4-cyano-3-(1H-1,2,4-triazol-3-yl)thiophen-2-yl)-2-(2-oxo-3,4-dihydro-1,5-naphthyridin-1(2H)-yl)acetamide], the IC50 against JNK2, against JNK3 and on JNK1 was under 0.1 µM in each case.
In the case of `N#Cc1csc(NC(=O)CN2C(=O)CCc3ccccc32)c1-c1ncn[nH]1` [N-(4-cyano-3-(1H-1,2,4-triazol-5-yl)thiophen-2-yl)-2-(2-oxo-3,4-dihydroquinolin-1(2H)-yl)acetamide], the IC50 against JNK2, against JNK3 and at JNK1 was under 0.1 µM each time.
As to `N#Cc1csc(NC(=O)Cc2cccc3cnccc23)c1-c1ncn[nH]1` [N-(4-cyano-3-(1H-1,2,4-triazol-5-yl)thiophen-2-yl)-2-(isoquinolin-5-yl)acetamide], the IC50 against JNK2, at JNK3 and against JNK1 was under 0.1 µM throughout.
As for `N#Cc1csc(NC(=O)Cn2c(=O)ccc3cc(C(F)(F)F)ccc32)c1-n1nccn1` [N-(4-cyano-3-(2H-1,2,3-triazol-2-yl)thiophen-2-yl)-2-(2-oxo-6-(trifluoromethyl)quinolin-1(2H)-yl)acetamide], the IC50 at JNK2, at JNK3 and on JNK1 was under 0.1 µM throughout.
Take `N#Cc1csc(NC(=O)Cc2cccc3ncccc23)c1-c1nnc[nH]1` [N-(4-cyano-3-(4H-1,2,4-triazol-3-yl)thiophen-2-yl)-2-(quinolin-5-yl)acetamide]: the IC50 at JNK2, against JNK3 and against JNK1 was under 0.1 µM each time.
